Assays:
COLO-741 = assay: cells; type: functional, cell-based; conditions: Homo sapiens
Description: SANGER: Inhibition of human COLO-741 cell growth in a cell viability assay.

Ca-Ski = assay: cells; type: functional, cell-based; conditions: Homo sapiens;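 further: cell viability assay measuring inhibition of Ca-Ski cell growth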
Description: SANGER: Inhibition of human Ca-Ski cell growth in a cell viability assay.

EB-3 = assay: cells; type: functional, cell-based, Homo sapiens; conditions: Homo sapiens, EB-3;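 further: human EB-3 cells, growth inhibition read out via a cell viability assay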
Description: SANGER: Inhibition of human EB-3 cell growth in a cell viability assay.

ECC4 = assay: cells; type: functional, cell-based, Homo sapiens; conditions: Homo sapiens, ECC4;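 further: growth inhibition of ECC4 cells, read out with a cell viability assay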
Description: SANGER: Inhibition of human ECC4 cell growth in a cell viability assay.

G-401 = assay: cells; type: functional, cell-based; conditions: Homo sapiens
Description: SANGER: Inhibition of human G-401 cell growth in a cell viability assay.

GMS-10 = assay: cells; type: functional, cell-based; conditions: Homo sapiens;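 further: growth inhibition of GMS-10 cells, read out as cell viability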
Description: SANGER: Inhibition of human GMS-10 cell growth in a cell viability assay.

HCC1806 = assay: cells; type: functional, cell-based; conditions: Homo sapiens;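 further: growth inhibition of the cancer cell line, determined with a cell viability assay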
Description: SANGER: Inhibition of human HCC1806 cell growth in a cell viability assay.

HPAF-II = assay: cells; type: functional, cell-based; conditions: Homo sapiens;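 further: growth inhibition of HPAF-II cells, read out with a cell viability assay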
Description: SANGER: Inhibition of human HPAF-II cell growth in a cell viability assay.

HSC-4 = assay: cells; type: functional, cell-based; conditions: Homo sapiens;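 further: growth inhibition of human HSC-4 cells, read out with a cell viability assay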
Description: SANGER: Inhibition of human HSC-4 cell growth in a cell viability assay.

HT-3 = assay: cells; type: functional, cell-based; conditions: Homo sapiens;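 further: growth inhibition measured with a cell viability readout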
Description: SANGER: Inhibition of human HT-3 cell growth in a cell viability assay.

IGROV-1 = assay: cells; type: functional, cell-based; conditions: Homo sapiens;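 further: reduction of IGROV-1 cell growth, read out with a viability assay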
Description: SANGER: Inhibition of human IGROV-1 cell growth in a cell viability assay.

K052 = assay: cells; type: functional, cell-based, Homo sapiens; conditions: Homo sapiens, K052;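 further: Read-out from a cell viability assay, IC50 reflecting suppression of K052 cell growth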
Description: SANGER: Inhibition of human K052 cell growth in a cell viability assay.

KARPAS-422 = assay: cells; type: functional, cell-based, Homo sapiens; conditions: Homo sapiens, KARPAS-422
Description: SANGER: Inhibition of human KARPAS-422 cell growth in a cell viability assay.

KYSE-140 = assay: cells; type: functional, cell-based; conditions: Homo sapiens;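 further: cell viability assay measuring growth inhibition in human KYSE-140 cells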
Description: SANGER: Inhibition of human KYSE-140 cell growth in a cell viability assay.

KYSE-150 cell line = assay: cells; type: functional, cell-based; conditions: Homo sapiens;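 further: growth inhibition of human KYSE-150 cells, read out with a cell viability assay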
Description: SANGER: Inhibition of human KYSE-150 cell growth in a cell viability assay.

KYSE-270 = assay: cells; type: functional, cell-based; conditions: Homo sapiens;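 further: cell growth inhibition measured with a viability assay in the human KYSE-270 line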
Description: SANGER: Inhibition of human KYSE-270 cell growth in a cell viability assay.

KYSE-510 = assay: cells; type: functional, cell-based; conditions: Homo sapiens;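 further: cell viability readout used to measure how strongly growth of the cell line is suppressed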
Description: SANGER: Inhibition of human KYSE-510 cell growth in a cell viability assay.

LB647-SCLC = assay: cells; type: functional, cell-based, Homo sapiens; conditions: Homo sapiens, LB647-SCLC;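 further: cell growth inhibition, read out by a viability assay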
Description: SANGER: Inhibition of human LB647-SCLC cell growth in a cell viability assay.

LC4-1 = assay: cells; type: functional, cell-based, Homo sapiens; conditions: Homo sapiens, LC4-1;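 further: growth inhibition of LC4-1 cells, read out with a cell viability assay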
Description: SANGER: Inhibition of human LC4-1 cell growth in a cell viability assay.

LU-99A = assay: cells; type: functional, cell-based; conditions: Homo sapiens;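 further: growth inhibition of LU-99A cells, read out with a cell viability assay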
Description: SANGER: Inhibition of human LU-99A cell growth in a cell viability assay.

MDA-MB-453 = assay: cells; type: functional, cell-based; conditions: Homo sapiens
Description: SANGER: Inhibition of human MDA-MB-453 cell growth in a cell viability assay.

ME-180 = assay: cells; type: functional, cell-based; conditions: Homo sapiens;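 further: cell viability assay measuring growth inhibition of ME-180 cells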
Description: SANGER: Inhibition of human ME-180 cell growth in a cell viability assay.

MFH-ino = assay: cells; type: functional, cell-based, Homo sapiens; conditions: Homo sapiens, MFH-ino;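 further: growth inhibition of human MFH-ino cells, read out by a cell viability assay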
Description: SANGER: Inhibition of human MFH-ino cell growth in a cell viability assay.

MKN-7 = assay: cells; type: functional, cell-based; conditions: Homo sapiens;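 further: growth inhibition of MKN-7 cells, read out with a cell viability assay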
Description: SANGER: Inhibition of human MKN7 cell growth in a cell viability assay.

NB12 = assay: cells; type: functional, cell-based; conditions: Homo sapiens;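 further: growth inhibition of human NB12 cells, read out by a cell viability assay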
Description: SANGER: Inhibition of human NB12 cell growth in a cell viability assay.

NCI-H2196 = assay: cells; type: functional, cell-based, Homo sapiens; conditions: Homo sapiens, NCI-H2196; read-out: IC50;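 further: cell viability assay used as the readout of growth inhibition in NCI-H2196 cells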
Description: SANGER: Inhibition of human NCI-H2196 cell growth in a cell viability assay.

NCI-H2347 = assay: cells; type: functional, cell-based; conditions: Homo sapiens;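 further: growth inhibition of the cell line, read out with a cell viability assay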
Description: SANGER: Inhibition of human NCI-H2347 cell growth in a cell viability assay.

NCI-H2405 = assay: cells; type: functional, cell-based; conditions: Homo sapiens;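 further: growth inhibition of the human cell line, read out with a cell viability assay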
Description: SANGER: Inhibition of human NCI-H2405 cell growth in a cell viability assay.

NCI-H460 = assay: cells; type: functional, cell-based; conditions: Homo sapiens;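 further: cell viability assay scoring growth inhibition of human NCI-H460 cells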
Description: SANGER: Inhibition of human NCI-H460 cell growth in a cell viability assay.

NCI-H510A = assay: cells; type: functional, cell-based, Homo sapiens; conditions: Homo sapiens, NCI-H510A;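 further: growth inhibition of NCI-H510A cells, read out with a cell viability assay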
Description: SANGER: Inhibition of human NCI-H510A cell growth in a cell viability assay.

NCI-H522 = assay: cells; type: functional, cell-based; conditions: Homo sapiens;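 further: cell viability assay measuring growth inhibition of human NCI-H522 cells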
Description: SANGER: Inhibition of human NCI-H522 cell growth in a cell viability assay.

NCI-H810 = assay: cells; type: functional, cell-based; conditions: Homo sapiens;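 further: IC50 reflects inhibition of cancer cell line growth, read out with a cell viability assay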
Description: SANGER: Inhibition of human NCI-H810 cell growth in a cell viability assay.

OVCAR-8 = assay: cells; type: functional, cell-based; conditions: Homo sapiens;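 further: growth inhibition of human OVCAR-8 cells, read out by a cell viability assay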
Description: SANGER: Inhibition of human OVCAR-8 cell growth in a cell viability assay.

P31-FUJ = assay: cells; type: functional, cell-based, Homo sapiens; conditions: Homo sapiens, P31-FUJ;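 further: growth inhibition of P31-FUJ cells, read out with a viability assay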
Description: SANGER: Inhibition of human P31-FUJ cell growth in a cell viability assay.

PF-382 = assay: cells; type: functional, cell-based, Homo sapiens; conditions: Homo sapiens, PF-382
Description: SANGER: Inhibition of human PF-382 cell growth in a cell viability assay.

RL = assay: cells; type: functional, cell-based, Homo sapiens; conditions: Homo sapiens, RL
Description: SANGER: Inhibition of human RL cell growth in a cell viability assay.

RL95-2 = assay: cells; type: functional, cell-based, Homo sapiens; conditions: Homo sapiens, RL95-2;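 further: RL95-2 growth inhibition determined through a cell viability readout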
Description: SANGER: Inhibition of human RL95-2 cell growth in a cell viability assay.

RMG-I = assay: cells; type: functional, cell-based; conditions: Homo sapiens;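 further: growth inhibition of human RMG-I cells, read out with a cell viability assay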
Description: SANGER: Inhibition of human RMG-I cell growth in a cell viability assay.

RO82-W-1 = assay: cells; type: functional, cell-based; conditions: Homo sapiens;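 further: growth inhibition of human RO82-W-1 cells, measured with a cell viability assay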
Description: SANGER: Inhibition of human RO82-W-1 cell growth in a cell viability assay.

RPMI 8402 = assay: SANGER: Inhibition of human RPMI-8402 cell growth in a cell viability assay.; type: functional, cell-based; conditions: Homo sapiens, RPMI 8402
RVH-421 = assay: cells; type: functional, cell-based; conditions: Homo sapiens
Description: SANGER: Inhibition of human RVH-421 cell growth in a cell viability assay.

SBC-5 = assay: cells; type: functional, cell-based; conditions: Homo sapiens;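 further: cell viability assay read-out, IC50 is the concentration that inhibits growth of the cells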
Description: SANGER: Inhibition of human SBC-5 cell growth in a cell viability assay.

SCC-4 = assay: cells; type: functional, cell-based; conditions: Homo sapiens;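 further: growth inhibition of human SCC-4 cells, read out as cell viability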
Description: SANGER: Inhibition of human SCC-4 cell growth in a cell viability assay.

SCLC-21H = assay: cells; type: functional, cell-based, Homo sapiens; conditions: Homo sapiens, SCLC-21H;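 further: growth inhibition of cultured human SCLC-21H cells, read out with a cell viability assay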
Description: SANGER: Inhibition of human SCLC-21H cell growth in a cell viability assay.

SNU-449 = assay: cells; type: functional, cell-based; conditions: Homo sapiens
Description: SANGER: Inhibition of human SNU-449 cell growth in a cell viability assay.

SW1088 = assay: cells; type: functional, cell-based; conditions: Homo sapiens;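 further: growth inhibition of human SW1088 cells, read out by a cell viability assay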
Description: SANGER: Inhibition of human SW1088 cell growth in a cell viability assay.

SW756 = assay: cells; type: functional, cell-based; conditions: Homo sapiens;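 further: growth inhibition of human SW756 cells, read out with a cell viability assay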
Description: SANGER: Inhibition of human SW756 cell growth in a cell viability assay.

SW948 = assay: cells; type: functional, cell-based; conditions: Homo sapiens;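 further: growth inhibition of SW948 cells, read out with a cell viability assay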
Description: SANGER: Inhibition of human SW948 cell growth in a cell viability assay.

639-V = assay: cells; type: functional, cell-based; conditions: Homo sapiens;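 further: growth inhibition of 639-V cells, read out with a cell viability assay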
Description: SANGER: Inhibition of human 639-V cell growth in a cell viability assay.

A 172 = assay: cells; type: functional, cell-based; conditions: Homo sapiens;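 further: growth inhibition of A172 cells, measured with a cell viability readout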
Description: SANGER: Inhibition of human A172 cell growth in a cell viability assay.

A2058 = assay: cells; type: functional, cell-based; conditions: Homo sapiens;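 further: reduction of A2058 cell growth, read out with a viability assay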
Description: SANGER: Inhibition of human A2058 cell growth in a cell viability assay.

ARH-77 = assay: cells; type: functional, cell-based, Homo sapiens; conditions: Homo sapiens, ARH-77;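 further: growth inhibition of ARH-77 cells, read out by a cell viability assay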
Description: SANGER: Inhibition of human ARH-77 cell growth in a cell viability assay.

BCPAP = assay: cells; type: functional, cell-based; conditions: Homo sapiens;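 further: growth inhibition of BCPAP cells, read out in a cell viability assay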
Description: SANGER: Inhibition of human BCPAP cell growth in a cell viability assay.

BL-41 = assay: cells; type: functional, cell-based; conditions: Homo sapiens;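 further: growth inhibition of human BL-41 cells, read out with a cell viability assay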
Description: SANGER: Inhibition of human BL-41 cell growth in a cell viability assay.

BL-70 = assay: SANGER: Inhibition of human BL-70 cell growth in a cell viability assay.; type: functional, cell-based; conditions: Homo sapiens, BL-70
WSU-NHL = assay: cells; type: functional, cell-based, Homo sapiens; conditions: Homo sapiens, WSU-NHL;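 further: growth inhibition of human WSU-NHL cells, read out with a cell viability assay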
Description: SANGER: Inhibition of human WSU-NHL cell growth in a cell viability assay.

COLO-680N = assay: cells; type: functional, cell-based; conditions: Homo sapiens;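 further: cell viability assay used to measure inhibition of COLO-680N cell growth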
Description: SANGER: Inhibition of human COLO-680N cell growth in a cell viability assay.

KP-N-YN = assay: cells; type: functional, cell-based; conditions: Homo sapiens;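 further: growth inhibition of KP-N-YN cells, read out with a cell viability assay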
Description: SANGER: Inhibition of human KP-N-YN cell growth in a cell viability assay.

`O=S(=O)(O)c1ccc2cc(/N=N/c3cc(S(=O)(=O)O)c4cccnc4c3O)ccc2c1` showed an IC50 (COLO-741) greater than 16000 nM, an IC50 (Ca-Ski) greater than 16000 nM and an IC50 (EB-3) greater than 16000 nM. The IC50 (ECC4) was greater than 16000 nM, the IC50 (G-401) was greater than 16000 nM and the IC50 (GMS-10) was greater than 16000 nM. It also gave an IC50 (HCC1806) greater than 16000 nM, an IC50 (HPAF-II) greater than 16000 nM and an IC50 (HSC-4) greater than 16000 nM. It also gave an IC50 (HT-3) greater than 16000 nM, an IC50 (IGROV-1) greater than 16000 nM and an IC50 (K052) greater than 16000 nM. It also gave an IC50 (KARPAS-422) greater than 16000 nM, an IC50 (KYSE-140) greater than 16000 nM and an IC50 (KYSE-150 cell line) greater than 16000 nM. For the same compound, the IC50 (KYSE-270) was greater than 16000 nM, the IC50 (KYSE-510) was greater than 16000 nM and the IC50 (LB647-SCLC) was greater than 16000 nM. For the same compound, the IC50 (LC4-1) was greater than 16000 nM, the IC50 (LU-99A) was greater than 16000 nM and the IC50 (MDA-MB-453) was greater than 16000 nM. For the same compound, the IC50 (ME-180) was greater than 16000 nM, the IC50 (MFH-ino) was greater than 16000 nM and the IC50 (MKN-7) was greater than 16000 nM. It also gave an IC50 (NB12) greater than 16000 nM, an IC50 (NCI-H2196) greater than 16000 nM and an IC50 (NCI-H2347) greater than 16000 nM. It also gave an IC50 (NCI-H2405) greater than 16000 nM, an IC50 (NCI-H460) greater than 16000 nM and an IC50 (NCI-H510A) greater than 16000 nM. The IC50 (NCI-H522) was greater than 16000 nM, the IC50 (NCI-H810) was greater than 16000 nM and the IC50 (OVCAR-8) was greater than 16000 nM. The IC50 (P31-FUJ) was greater than 16000 nM, the IC50 (PF-382) was greater than 16000 nM and the IC50 (RL) was greater than 16000 nM. The IC50 (RL95-2) was greater than 16000 nM, the IC50 (RMG-I) was greater than 16000 nM and the IC50 (RO82-W-1) was greater than 16000 nM. It also gave an IC50 (RPMI 8402) greater than 16000 nM, an IC50 (RVH-421) greater than 16000 nM and an IC50 (SBC-5) greater than 16000 nM. It also gave an IC50 (SCC-4) greater than 16000 nM, an IC50 (SCLC-21H) greater than 16000 nM and an IC50 (SNU-449) greater than 16000 nM. For the same compound, the IC50 (SW1088) was greater than 16000 nM, the IC50 (SW756) was greater than 16000 nM and the IC50 (SW948) was greater than 16000 nM. It also gave an IC50 (639-V) greater than 16000 nM, an IC50 (A 172) greater than 16000 nM and an IC50 (A2058) greater than 16000 nM. For the same compound, the IC50 (ARH-77) was greater than 16000 nM, the IC50 (BCPAP) was greater than 16000 nM and the IC50 (BL-41) was greater than 16000 nM. It also gave an IC50 (BL-70) greater than 16000 nM, an IC50 (WSU-NHL) greater than 16000 nM and an IC50 (COLO-680N) greater than 16000 nM.
Compound `C/C(=C\c1csc(C)n1)[C@@H]1C[C@@H]2O[C@]2(C)CCC[C@H](C)[C@H](O)[C@@H](C)C(=O)C(C)(C)[C@@H](O)CC(=O)O1` [PATUPILONE] has an IC50 (COLO-741) of 2.72 nM, an IC50 (Ca-Ski) of 3.85 nM and an IC50 (EB-3) greater than 32 nM. The IC50 (ECC4) was greater than 32 nM, the IC50 (G-401) was 1.51 nM and the IC50 (GMS-10) was greater than 32 nM. It also gave an IC50 (HCC1806) of 1.38 nM, an IC50 (HPAF-II) of 21 nM and an IC50 (HSC-4) of 29.9 nM. The IC50 (HT-3) was 15 nM, the IC50 (IGROV-1) was 0.156 nM and the IC50 (K052) was 5.84 nM. The IC50 (KARPAS-422) was 10.6 nM, the IC50 (KP-N-YN) was greater than 32 nM and the IC50 (KYSE-140) was 1.23 nM. For the same compound, the IC50 (KYSE-150 cell line) was 0.499 nM, the IC50 (KYSE-270) was 0.445 nM and the IC50 (KYSE-510) was 0.0738 nM. It also gave an IC50 (LB647-SCLC) of 3.1 nM, an IC50 (LC4-1) of 12.8 nM and an IC50 (LU-99A) of 5.33 nM. For the same compound, the IC50 (MDA-MB-453) was greater than 32 nM, the IC50 (ME-180) was 5.74 nM and the IC50 (MFH-ino) was 0.885 nM. For the same compound, the IC50 (MKN-7) was greater than 32 nM, the IC50 (NB12) was greater than 32 nM and the IC50 (NCI-H2196) was greater than 32 nM. It also gave an IC50 (NCI-H2347) greater than 32 nM, an IC50 (NCI-H2405) of 12.7 nM and an IC50 (NCI-H460) of 0.333 nM. The IC50 (NCI-H510A) was 11.9 nM, the IC50 (NCI-H522) was 0.635 nM and the IC50 (NCI-H810) was 0.322 nM. It also gave an IC50 (OVCAR-8) of 1.06 nM, an IC50 (P31-FUJ) greater than 32 nM and an IC50 (PF-382) of 8.68 nM. It also gave an IC50 (RL) greater than 32 nM, an IC50 (RMG-I) greater than 32 nM and an IC50 (RO82-W-1) greater than 32 nM. It also gave an IC50 (RPMI 8402) of 4.45 nM, an IC50 (RVH-421) of 14.3 nM and an IC50 (SBC-5) of 0.912 nM. It also gave an IC50 (SCC-4) of 0.877 nM, an IC50 (SCLC-21H) of 7.59 nM and an IC50 (SNU-449) of 1.91 nM. It also gave an IC50 (SW1088) of 5.79 nM, an IC50 (SW756) greater than 32 nM and an IC50 (SW948) of 17.8 nM. The IC50 (639-V) was 0.218 nM, the IC50 (A 172) was 1.92 nM and the IC50 (A2058) was 0.601 nM. The IC50 (ARH-77) was 6.13 nM, the IC50 (BCPAP) was 0.581 nM and the IC50 (BL-41) was 1.35 nM. It also gave an IC50 (BL-70) of 2.16 nM, an IC50 (WSU-NHL) of 4.15 nM and an IC50 (COLO-680N) of 7.16 nM.
